According to paper PMC7782793, “Hydroxamic acid-modified peptide microarrays for profiling isozyme-selective interactions and inhibition of histone deacetylases” (Nature Communications, 2021):
Values joined by “and” are separate entries in the source; they are usually repeats but may differ in a detail not shown here. Equal entries are not always repeated. Marks after values point to notes of the source that are not given here. Non-standard residues stand in square brackets, D forms with d. Residues, ends and D or L forms follow the SMILES beside them. *: point of attachment. Asu = N[C@@H](CCCCCC(=O)O)C(=O)O; NHOH = ON*

How the values were obtained:
HDAC3/NCoR2 [1] = biological target: T1, HDAC3/NCoR2 (Homo sapiens, UniProt O15379); experiment: Recombinant HDAC µSPOT microarray binding assay;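 also: peptide spots on cellulose slides incubated with rising HDAC enzyme concentrations, imaged together, four-parameter logistic fit, EC50 is enzyme concentration giving half-maximal binding signal, two experiments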
T1 construct: HDAC3/NCoR2 (full length, C-terminal His tag, NCoR2 N-terminal GST tag); purchased BPS Bioscience 50003
T1 sequence (O15379 whole entry): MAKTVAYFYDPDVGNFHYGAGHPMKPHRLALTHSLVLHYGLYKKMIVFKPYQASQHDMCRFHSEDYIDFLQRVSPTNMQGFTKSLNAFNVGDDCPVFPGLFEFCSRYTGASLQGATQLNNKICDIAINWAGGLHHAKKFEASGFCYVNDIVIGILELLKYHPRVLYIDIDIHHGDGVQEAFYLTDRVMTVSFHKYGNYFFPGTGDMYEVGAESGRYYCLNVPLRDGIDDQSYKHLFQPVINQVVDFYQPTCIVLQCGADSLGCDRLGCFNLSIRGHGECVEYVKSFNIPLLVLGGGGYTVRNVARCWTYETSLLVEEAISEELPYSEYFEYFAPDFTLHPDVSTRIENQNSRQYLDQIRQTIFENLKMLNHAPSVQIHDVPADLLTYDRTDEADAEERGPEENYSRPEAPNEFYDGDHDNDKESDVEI
T1 sequence (Q9Y618 389-480 partner limits assumed): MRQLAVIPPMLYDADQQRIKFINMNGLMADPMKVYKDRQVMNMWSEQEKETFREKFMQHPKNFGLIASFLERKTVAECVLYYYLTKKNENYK

HDAC3/NCoR2 [2] = biological target: T1, HDAC3/NCoR2; experiment: HDAC inhibition assay (fluorogenic, Ac-Leu-Gly-Lys(Ac)-AMC); format: biochemical; settings: for HDAC3 dose-response data (relative enzyme activity), Fig. 6 + S. Fig. 10: duplicate columns
HDAC6 = biological target: T2, HDAC6 (Homo sapiens, UniProt Q9UBN7); experiment: as above; format: biochemical; settings: HDAC6, replicates
T2 construct: HDAC6 (full length, BPS Bioscience, cat. #: 50056); purchased BPS Bioscience 50056
T2 sequence (Q9UBN7 1-1215): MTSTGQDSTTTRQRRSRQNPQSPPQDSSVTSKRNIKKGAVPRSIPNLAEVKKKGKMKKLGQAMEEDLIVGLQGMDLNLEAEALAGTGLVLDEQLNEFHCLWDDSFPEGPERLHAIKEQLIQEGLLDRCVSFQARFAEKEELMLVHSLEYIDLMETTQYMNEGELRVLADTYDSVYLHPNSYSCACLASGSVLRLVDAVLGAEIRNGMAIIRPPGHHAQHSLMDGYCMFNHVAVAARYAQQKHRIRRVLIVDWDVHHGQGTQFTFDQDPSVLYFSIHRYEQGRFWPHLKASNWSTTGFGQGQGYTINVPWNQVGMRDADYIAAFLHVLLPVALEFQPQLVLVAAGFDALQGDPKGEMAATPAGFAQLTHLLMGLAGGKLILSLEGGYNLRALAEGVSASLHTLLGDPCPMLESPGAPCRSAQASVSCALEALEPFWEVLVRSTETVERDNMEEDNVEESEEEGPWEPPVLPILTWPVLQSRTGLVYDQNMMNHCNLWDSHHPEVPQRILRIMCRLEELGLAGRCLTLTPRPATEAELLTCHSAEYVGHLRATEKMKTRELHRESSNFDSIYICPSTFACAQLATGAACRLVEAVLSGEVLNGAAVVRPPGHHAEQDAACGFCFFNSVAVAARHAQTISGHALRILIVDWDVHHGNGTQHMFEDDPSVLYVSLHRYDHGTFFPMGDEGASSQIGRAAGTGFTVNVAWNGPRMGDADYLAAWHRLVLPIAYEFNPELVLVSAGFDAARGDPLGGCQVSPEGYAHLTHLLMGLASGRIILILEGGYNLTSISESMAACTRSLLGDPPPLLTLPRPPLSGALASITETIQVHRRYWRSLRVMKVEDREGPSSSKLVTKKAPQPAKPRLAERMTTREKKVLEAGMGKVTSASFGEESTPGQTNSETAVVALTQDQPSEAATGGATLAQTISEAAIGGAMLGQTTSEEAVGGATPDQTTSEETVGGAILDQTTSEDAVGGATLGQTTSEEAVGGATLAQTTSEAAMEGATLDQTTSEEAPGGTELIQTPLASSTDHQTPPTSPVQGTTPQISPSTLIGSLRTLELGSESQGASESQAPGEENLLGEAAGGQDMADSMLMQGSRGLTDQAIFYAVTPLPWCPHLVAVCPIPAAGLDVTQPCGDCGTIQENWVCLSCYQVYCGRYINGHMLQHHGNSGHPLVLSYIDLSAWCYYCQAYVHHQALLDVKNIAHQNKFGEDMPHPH

HDAC1 [3] = biological target: T3, HDAC1 (Homo sapiens, UniProt Q13547); experiment: Recombinant HDAC µSPOT microarray binding assay;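 also: slides with spotted peptides incubated with six HDAC concentrations in HEPES buffer pH 7.4, spot intensities fitted by four-parameter logistic, EC50 as enzyme concentration giving half-maximal binding signal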
T3 construct: HDAC1 (full length, C-terminal His tag, C-terminal FLAG tag, BPS Bioscience, cat. #: 50051); FLAG (C); purchased BPS Bioscience 50051
T3 sequence (Q13547 whole entry): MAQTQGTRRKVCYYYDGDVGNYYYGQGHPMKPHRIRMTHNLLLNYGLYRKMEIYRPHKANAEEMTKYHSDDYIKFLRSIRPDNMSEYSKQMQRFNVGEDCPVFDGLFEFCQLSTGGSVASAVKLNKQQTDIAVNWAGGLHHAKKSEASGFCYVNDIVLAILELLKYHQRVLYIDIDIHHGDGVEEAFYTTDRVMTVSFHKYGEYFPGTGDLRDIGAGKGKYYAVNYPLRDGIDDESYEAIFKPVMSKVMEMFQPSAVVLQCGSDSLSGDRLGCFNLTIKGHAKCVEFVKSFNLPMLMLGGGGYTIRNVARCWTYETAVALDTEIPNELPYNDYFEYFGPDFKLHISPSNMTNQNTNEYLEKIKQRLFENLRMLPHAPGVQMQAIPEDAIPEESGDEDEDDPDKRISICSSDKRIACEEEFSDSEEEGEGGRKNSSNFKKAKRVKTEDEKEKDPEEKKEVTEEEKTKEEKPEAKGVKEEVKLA

HDAC8 = biological target: T4, HDAC8 (Homo sapiens, UniProt Q9BY41); experiment: HDAC inhibition assay (fluorogenic, Ac-Leu-Gly-Lys(Tfa)-AMC); format: biochemical; settings: for HDAC8 dose-response data (relative enzyme activity, replicate values), Fig. 6 + S. Fig. 10: two replicate columns per inhibitor; for HDAC8 dose-response data (relative enzyme activity), Fig. 6 + S. Fig. 10: duplicate columns
T4 construct: HDAC8 (full length, C-terminal His tag, BPS Bioscience, cat. #: 50008); purchased BPS Bioscience 50008
T4 sequence (Q9BY41 1-377): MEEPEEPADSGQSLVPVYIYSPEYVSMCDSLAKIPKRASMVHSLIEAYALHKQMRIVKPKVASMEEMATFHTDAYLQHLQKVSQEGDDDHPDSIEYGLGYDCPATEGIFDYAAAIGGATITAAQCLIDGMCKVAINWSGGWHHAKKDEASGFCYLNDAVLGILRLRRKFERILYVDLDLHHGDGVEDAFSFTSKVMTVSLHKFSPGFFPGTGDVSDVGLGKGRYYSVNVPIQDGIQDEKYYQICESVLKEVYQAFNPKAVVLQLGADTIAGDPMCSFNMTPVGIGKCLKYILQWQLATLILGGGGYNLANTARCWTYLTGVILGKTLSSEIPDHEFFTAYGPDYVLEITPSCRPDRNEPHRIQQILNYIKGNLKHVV

HDAC1 [4] = biological target: T3, HDAC1; experiment: HDAC inhibition assay (fluorogenic, Ac-Leu-Gly-Lys(Ac)-AMC); format: biochemical; settings: for HDAC1 dose-response data (relative enzyme activity), Fig. 6 + S. Fig. 10: duplicate columns
HDAC2 = biological target: T5, HDAC2 (Homo sapiens, UniProt Q92769); experiment: as above; format: biochemical; settings: for HDAC2 dose-response data (relative enzyme activity), Fig. 6 + S. Fig. 10: duplicate columns
T5 construct: HDAC2 (full length, C-terminal His tag, BPS Bioscience, cat. #: 50002); purchased BPS Bioscience 50002
T5 sequence (Q92769 whole entry): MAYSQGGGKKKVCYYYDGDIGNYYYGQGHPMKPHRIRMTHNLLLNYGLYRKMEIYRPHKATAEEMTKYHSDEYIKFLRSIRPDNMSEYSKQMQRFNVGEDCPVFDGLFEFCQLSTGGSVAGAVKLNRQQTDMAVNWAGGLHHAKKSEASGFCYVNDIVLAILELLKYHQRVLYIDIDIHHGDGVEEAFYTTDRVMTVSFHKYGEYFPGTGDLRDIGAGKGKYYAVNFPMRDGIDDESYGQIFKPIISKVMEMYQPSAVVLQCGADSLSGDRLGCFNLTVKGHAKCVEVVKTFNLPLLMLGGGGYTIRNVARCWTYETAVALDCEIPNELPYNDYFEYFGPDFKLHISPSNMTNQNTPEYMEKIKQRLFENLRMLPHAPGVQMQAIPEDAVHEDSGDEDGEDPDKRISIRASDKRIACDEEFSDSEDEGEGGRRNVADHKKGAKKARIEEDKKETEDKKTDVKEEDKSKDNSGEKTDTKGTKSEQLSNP

[5] = log[inhibitor(M)] -10,5850266520292*, whole line marked with asterisks

## CC(=O)N[C@@H](C)C(=O)N[C@@H](CCCNC(=N)N)C(=O)N[C@@H](CCCCN)C(=O)N[C@@H](CO)C(=O)N[C@H](C(=O)NCC(=O)NCC(=O)N[C@@H](CCCCN)C(=O)N[C@@H](C)C(=O)N1CCC[C@H]1C(=O)N[C@@H](CCCNC(=N)N)C(=O)N[C@@H](CCCCCC(=O)NO)C(=O)N[C@@H](CCC(N)=O)C(=O)N[C@@H](CC(C)C)C(=O)N[C@@H](C)C(=O)N[C@H](C(=O)N[C@@H](Cc1c[nH]c2ccccc12)C(N)=O)[C@@H](C)O)[C@@H](C)O [13a] (Ac-ARKSTGGKAPR[Asu](NHOH)QLATW-NH2)
HDAC3/NCoR2 [1]
  EC50: 4.17 nM
HDAC3/NCoR2 [2]
  Ki: 2.14 ± 0.02 nM
HDAC3/NCoR2 [2]; log[inhibitor(M)] -4.30103
  HDAC3 dose-response data (relative enzyme activity), Fig. 6 + S. Fig. 10: 0.9488 and 1.386
HDAC3/NCoR2 [2]; log[inhibitor(M)] -5
  HDAC3 dose-response data (relative enzyme activity), Fig. 6 + S. Fig. 10: 3.154 and 2.6883
HDAC3/NCoR2 [2]; log[inhibitor(M)] -5.69897
  HDAC3 dose-response data (relative enzyme activity), Fig. 6 + S. Fig. 10: 8.657 and 8.271
HDAC3/NCoR2 [2]; log[inhibitor(M)] -6.39794
  HDAC3 dose-response data (relative enzyme activity), Fig. 6 + S. Fig. 10: 15.6479 and 15.4413
HDAC3/NCoR2 [2]; log[inhibitor(M)] -7.09691
  HDAC3 dose-response data (relative enzyme activity), Fig. 6 + S. Fig. 10: 23.7196 and 23.3659
HDAC3/NCoR2 [2]; log[inhibitor(M)] -7.79588
  HDAC3 dose-response data (relative enzyme activity), Fig. 6 + S. Fig. 10: 41.0048 and 43.3286
HDAC3/NCoR2 [2]; log[inhibitor(M)] -8.49485
  HDAC3 dose-response data (relative enzyme activity), Fig. 6 + S. Fig. 10: 70.4254 and 74.0708
HDAC3/NCoR2 [2]; log[inhibitor(M)] -9.19382
  HDAC3 dose-response data (relative enzyme activity), Fig. 6 + S. Fig. 10: 90.1455 and 92.6434
HDAC3/NCoR2 [2]; log[inhibitor(M)] -9.89279
  HDAC3 dose-response data (relative enzyme activity), Fig. 6 + S. Fig. 10: 95.7935 and 97.884
HDAC3/NCoR2 [2]; [5]
  HDAC3 dose-response data (relative enzyme activity), Fig. 6 + S. Fig. 10: 98,4914638* and 97,1472426*
HDAC3/NCoR2 [2]; resynthesized peptides, from Ki
  selectivity for HDAC3 vs. HDACs 1 and 2: > 8 fold
HDAC6; log[inhibitor(M)] -4.30103
  residual enzymatic activity relative to control wells: -1.734 and 1.049
HDAC6; log[inhibitor(M)] -5
  residual enzymatic activity relative to control wells: -1.228 and 1.2154
HDAC6; log[inhibitor(M)] -5.69897
  residual enzymatic activity relative to control wells: 0.01806 and 2.993
HDAC6; log[inhibitor(M)] -6.39794
  residual enzymatic activity relative to control wells: 4.479 and 8.186
HDAC6; log[inhibitor(M)] -7.09691
  residual enzymatic activity relative to control wells: 18.6761 and 22.7019
HDAC6; log[inhibitor(M)] -7.79588
  residual enzymatic activity relative to control wells: 46.5457 and 51.1177
HDAC6; log[inhibitor(M)] -8.49485
  residual enzymatic activity relative to control wells: 65.89 and 75.8407
HDAC6; log[inhibitor(M)] -9.19382
  residual enzymatic activity relative to control wells: 72.6813 and 83.6344
HDAC6; log[inhibitor(M)] -9.89279
  residual enzymatic activity relative to control wells: 83.1572 and 99.4226
HDAC6; log[inhibitor(M)] -10.585
  residual enzymatic activity relative to control wells: 85.7762 and 94.8721
HDAC1 [3]
  EC50: > 25.1 nM
HDAC8
  Ki: 5.1 ± 0.03 nM
HDAC8; Inhibitor conc [M] -8.49485 (log)
  HDAC8 dose-response data (relative enzyme activity, replicate values), Fig. 6 + S. Fig. 10: 71.9184 and 69.3811
HDAC8; Inhibitor conc [M] -9.19382 (log)
  HDAC8 dose-response data (relative enzyme activity, replicate values), Fig. 6 + S. Fig. 10: 90.9342 and 89.4061
HDAC8; Inhibitor conc [M] given as -7.09691 (log)
  HDAC8 dose-response data (relative enzyme activity, replicate values), Fig. 6 + S. Fig. 10: 21.0963 and 19.8616
HDAC8; Inhibitor conc [M] given as -7.79588 (log)
  HDAC8 dose-response data (relative enzyme activity, replicate values), Fig. 6 + S. Fig. 10: 40.3806 and 38.3863
HDAC8; Inhibitor conc [M] given as -9.89279 (log)
  HDAC8 dose-response data (relative enzyme activity, replicate values), Fig. 6 + S. Fig. 10: 99.1075 and 97.7
HDAC8; Inhibitor conc [M] given as -10.585 (log)
  HDAC8 dose-response data (relative enzyme activity, replicate values), Fig. 6 + S. Fig. 10: 102.311 and 100.47
HDAC8; Inhibitor conc [M] -4.30103
  HDAC8 dose-response data (relative enzyme activity), Fig. 6 + S. Fig. 10: 1.362 and 1.423
HDAC8; Inhibitor conc [M] -5
  HDAC8 dose-response data (relative enzyme activity), Fig. 6 + S. Fig. 10: 4.393 and 4.0005
HDAC8; Inhibitor conc [M] -5.69897
  HDAC8 dose-response data (relative enzyme activity), Fig. 6 + S. Fig. 10: 9.7232 and 9.03
HDAC8; Inhibitor conc [M] -6.39794
  HDAC8 dose-response data (relative enzyme activity), Fig. 6 + S. Fig. 10: 13.9289 and 13.185
HDAC1 [4]
  Ki: 17.9 ± 0.4 nM
HDAC1 [4]; log[inhibitor(M)] -5
  HDAC1 dose-response data (relative enzyme activity), Fig. 6 + S. Fig. 10: 5.502 and 6.317
HDAC1 [4]; log[inhibitor(M)] -5.69897
  HDAC1 dose-response data (relative enzyme activity), Fig. 6 + S. Fig. 10: 16.4811 and 18.8712
HDAC1 [4]; log[inhibitor(M)] -6.39794
  HDAC1 dose-response data (relative enzyme activity), Fig. 6 + S. Fig. 10: 32.4053 and 35.9654
HDAC1 [4]; log[inhibitor(M)] -7.09691
  HDAC1 dose-response data (relative enzyme activity), Fig. 6 + S. Fig. 10: 44.2666 and 47.9606
HDAC1 [4]; log[inhibitor(M)] -7.79588
  HDAC1 dose-response data (relative enzyme activity), Fig. 6 + S. Fig. 10: 60.5299 and 62.3252
HDAC1 [4]; log[inhibitor(M)] -8.49485
  HDAC1 dose-response data (relative enzyme activity), Fig. 6 + S. Fig. 10: 80.9321 and 81.9464
HDAC1 [4]; log[inhibitor(M)] -9.19382
  HDAC1 dose-response data (relative enzyme activity), Fig. 6 + S. Fig. 10: 95.5469 and 95.3965
HDAC1 [4]; log[inhibitor(M)] -9.89279
  HDAC1 dose-response data (relative enzyme activity), Fig. 6 + S. Fig. 10: 98.1308 and 82.1941
HDAC1 [4]; [5]
  HDAC1 dose-response data (relative enzyme activity), Fig. 6 + S. Fig. 10: 98,3704548* and 94,2568861*
HDAC2; log[inhibitor(M)] -5
  HDAC2 dose-response data (relative enzyme activity), Fig. 6 + S. Fig. 10: 9.3053 and 9.139
HDAC2; log[inhibitor(M)] -5.69897
  HDAC2 dose-response data (relative enzyme activity), Fig. 6 + S. Fig. 10: 27.8438 and 26.8455
HDAC2; log[inhibitor(M)] -7.79588
  HDAC2 dose-response data (relative enzyme activity), Fig. 6 + S. Fig. 10: 88.6532 and 82.3131
HDAC2; [5]
  HDAC2 dose-response data (relative enzyme activity), Fig. 6 + S. Fig. 10: 104,855804* and 98,2337504*
HDAC2; resynthesized peptide in solution, Cheng-Prusoff, n = 2
  Ki: 60 ± 1 nM
